Measurements taken from patent publication US20100286164A1, “SUBSTITUTED ARYL ALKYLAMINO-OXY-ANALOGS AND USES THEREOF” (The Brigham and Women's Hospital, Inc, priority 2007, published 2010).

What was measured:
Type in all cases: biochemical
[1] = biological target: T1, γ-secretase (C100FLAG APP-based substrate) (Homo sapiens, UniProt P49768); assay: In vitro γ-secretase assay, C-100 Flag (APP-based substrate) cleavage; conditions: effect on C-100 Flag cleavage; compounds tested in vitro at 100 μM
T1 construct: made in house; host or cells: S-1 CHO cell line (Chinese hamster ovary)
Description: (§1) Purification of γ-Secretase and in Vitro γ-Secretase Assays—The following procedures can be used to isolate γ-secretase and measure its enzymatic activity. The multistep procedure for the high grade purification of human γ-secretase from the S-1 cells is performed as described previously (Fraering, P. C., et al. (2004) Biochemistry 43, 9774-9789). In vitro γ-secretase assays using the recombinant APP-based substrate C100FLAG and the recombinant Notch-based substrate N100FLAG are performed as reported previously (Esler, W. P., Kimberly, W. T., Ostaszewski, B. L., Ye, W., Diehl, T. S., Selkoe, D. J., and Wolfe, M. S. (2002) Proc. Natl. Acad. Sci. U.S.A. 99, 2720-2725, Kimberly, W. T., et al. (2003) Biochemistry 42, 137-144). Basically, the proteolytic reaction mixtures contain C100FLAG and N100FLAG substrate at a concentration of 1 μm, purified γ-secretase solubilized in 0.2% CHAPSO/HEPES, pH 7.5, at 10-fold dilution from stock (stock=the M2 anti-FLAG-eluted fraction in the purification protocol from S-1 cells (Fraering, P. C., et al. (2004) Biochemistry 43, 9774-9789)), 0.025% phosphatidylethanolamine (PE), and 0.10% phosphatidylcholine (PC). All the reactions are stopped by adding 0.5% SDS, and the samples are assayed for Aβ40 and Aβ42 by ELISA as described (Xia, W., Zhang, J., Ostaszewski, B. L., Kimberly, W. T., Seubert, P., Koo, E. H., Shen, J., and Selkoe, D. J. (1998) Biochemistry 37, 16465-16471). The capture antibodies are 2G3 (to Aβ residues 33-40) for the Aβ40 species and 21F12 (to Aβ residues 33-42) for the Aβ42 species.
(§2) Western Blotting and Antibodies—The following assay can be used to determine the extent to which the compounds of interest modulate the cleavage of APP and the Notch receptor. For Western analysis of PS1-NTF, PS1-CTF, Aph1α2-HA, FLAG-Pen-2, and NCT-GST, the samples are run on 4-20% Tris-glycine polyacrylamide gels, transferred to polyvinylidene difluoride, and can be probed with Ab14 (for PS1-NTF, 1:2000; a gift of S. Gandy), 13A11 (for PS1-CTF, 5 μg/ml; a gift of Elan Pharmaceuticals), 3F10 (for Aph1α2-HA, 50 ng/ml; Roche Applied Science), anti-FLAG M2 (for FLAG-Pen-2, 1:1000; Sigma), or αGST antibodies (for NCT-GST, 1:3000; Sigma). Samples from the γ-secretase activity assays (above) are run on 4-20% Tris-glycine gels and can be transferred to polyvinylidene difluoride membranes to detect AICD-FLAG with anti-FLAG M2 antibodies (1:1000, Sigma) and NICD-FLAG with Notch Ab1744 antibody (1:1000, Cell Signaling Technology), which is selective for the N terminus of NICD; the same samples are transferred to nitrocellulose membranes to detect Aβ with the anti-Aβ 6E10 antibody. Levels of AICD-FLAG and NICD-FLAG are estimated by densitometry using AlphaEase/Spot Denso (Alpha Innotech Corp.).
(§3) Naphthyl Amine Alcohol Analogs and Assay Data—Compounds listed in Table 2 may be assayed as described herein (e.g., in Examples 3 and 4) and the specificity may be evaluated by comparing the relative inhibitions of C-100 Flag and N-100 Flag cleavage. The potency of the inhibitor may be evaluated with an Aβ1-40 ELISA assay (e.g., using an Aβ40 ELISA kit available from Invitrogen, Carlsbad, Calif.). […] The following table indicates the properties of certain compounds of the invention that were assayed as described herein. (INH=Inhibits)

[2] = biological target: T2, γ-secretase (Aβ1-40 production) (Homo sapiens, UniProt P49768); assay: γ-Secretase assay, Aβ1-40 ELISA
T2 construct: made in house; host or cells: S-1 CHO cell line (Chinese hamster ovary)
Description: as §1, §3

[3] = biological target: T3, γ-secretase (N100FLAG Notch-based substrate) (Homo sapiens, UniProt P49768); assay: In vitro γ-secretase assay, N-100 Flag (Notch-based substrate) cleavage; conditions: effect on N-100 Flag cleavage; compounds tested in vitro at 100 μM
T3 construct: made in house; host or cells: S-1 CHO cell line (Chinese hamster ovary)
Description: as §1, §2, §3

| inhibition at 100 µM [2] | Structure (SMILES) | further results |
| --- | --- | --- |
| 0% | COc1ccc(C(O)CCN(Cc2ccccc2)C(C)C)cc1F (stereo not shown) [Example 60] |  |
| 0% | CC(C)N(CCC(O)c1ccccc1CN1CCCCC1)Cc1ccccc1 (stereo not shown) [Example 61] |  |
| 0% | CC(C)N(CCC(O)c1ccc2c(c1)OCO2)Cc1ccccc1 (stereo not shown) [Example 62] |  |
| 0% | Cc1ccc(C(O)CCN(Cc2ccccc2)C(C)C)cc1C (stereo not shown) [Example 63] |  |
| 6% | CC(C)N(CCC(O)c1ccc(C#N)cc1)Cc1ccccc1 (stereo not shown) [Example 64] |  |
| 2% | CC(C)N(CCC(O)c1ccc2ccccc2c1)Cc1ccc(C(=O)O)cc1 (stereo not shown) [Example 66] |  |
| 27% | CC(C)N(CCC(O)c1ccc(C(=O)O)cc1)Cc1ccccc1 (stereo not shown) [Example 67] |  |
| 0% | COc1cccc2cc(C(O)CCN(Cc3ccccc3)C(C)C)oc12 (stereo not shown) [Example 70] |  |
| 17% | CC(C)N(CC[C@H](O)c1ccc2ccccc2c1)Cc1ccccc1 [Example 76] |  |
| 48% | OC(CCNc1ccc(Oc2ccccc2)cc1)c1ccc2ccccc2c1 (stereo not shown) [Example 77] | γ-Secretase Assay C-100 Flag [1]: Inh |
| 0% | Cc1ccc(NCCC(O)c2ccc3ccccc3c2)cc1F (stereo not shown) [Example 78] | γ-Secretase Assay C-100 Flag [1]: Enh |
| 0% | CCOc1ccc(NCCC(O)c2ccc(F)cc2)cc1 (stereo not shown) [Example 79] | γ-Secretase Assay C-100 Flag [1]: Enh |
| 0% | COc1ccc(NCCC(O)c2ccc(Cl)cc2)cc1 (stereo not shown) [Example 80] | γ-Secretase Assay C-100 Flag [1]: Enh |
| 51% | COC(CCN(Cc1ccccc1)C(C)C)c1ccc2ccccc2c1 (stereo not shown) [Example 84] | γ-Secretase Assay C-100 Flag [1]: Inh |
| 50% | CC(C)N(CCC(Oc1ccc(C(F)(F)F)cc1)c1ccc2ccccc2c1)Cc1ccccc1 (stereo not shown) [Example 85] |  |
| 12% | COC(CCN(Cc1ccccc1)C(C)C)c1ccc2cc(C(O)CCN(Cc3ccccc3)C(C)C)ccc2c1 (stereo not shown) [Example 86] |  |

Further lines, the compound ahead of its results:

| Structure (SMILES) | inhibition at 100 µM [2] | further results |
| --- | --- | --- |
| COc1ccc(N2CCN(CCC(O)c3ccc4ccccc4c3)CC2)cc1 (stereo not shown) [Example 2] | 0% | γ-Secretase Assay C-100 Flag [1]: No change (NC) |
| OC(CCN1CCN(c2ccccc2)CC1)c1ccc2ccccc2c1 (stereo not shown) [Example 3] | 0% | γ-Secretase Assay N-100 Flag [3]: Enh |
| CC(C)N(CCC(O)c1ccccc1)Cc1ccccc1 (stereo not shown) [Example 4] | 10% |  |
| OC(CCN(Cc1ccccc1)Cc1ccccc1)c1ccc2ccccc2c1 (stereo not shown) [Example 5] | 32% |  |
| OC(CCN1CCCCCCC1)c1ccc2ccccc2c1 (stereo not shown) [Example 6] | 20% |  |
| OC(CCN(C1CCCCC1)C1CCCCC1)c1ccc2ccccc2c1 (stereo not shown) [Example 7] | 7% |  |
| CN(CCC(O)c1ccc2ccccc2c1)Cc1ccccc1 (stereo not shown) [Example 8] |  | γ-Secretase Assay ELISA % Inhibition [100 μM] Aβ1-40 [2]: 15% |
| CC(C)CN(CCC(O)c1ccc2ccccc2c1)CC(C)C (stereo not shown) [Example 9] | 0% |  |
| OC(CCNc1ccccc1)c1ccc2ccccc2c1 (stereo not shown) [Example 10] | 0% | γ-Secretase Assay C-100 Flag [1]: Enh |
| CC(C)(C)N(CCC(O)c1ccc2ccccc2c1)Cc1ccccc1 (stereo not shown) [Example 11] | 0% |  |
| CCN(CCC(O)c1ccc2ccccc2c1)Cc1ccccc1 (stereo not shown) [Example 12] | 0% | γ-Secretase Assay C-100 Flag [1]: Enh |
| CN(CCc1ccccc1)CCC(O)c1ccc2ccccc2c1 (stereo not shown) [Example 15] | 27% |  |
| OC(CCN1CCC2(CC1)OCCO2)c1ccc2ccccc2c1 (stereo not shown) [Example 16] | 2% |  |
| OC(CCNc1ccc2c(c1)OCCO2)c1ccc2ccccc2c1 (stereo not shown) [Example 21] | 0% |  |
| OC(CCNc1ccc(C2CCCCC2)cc1)c1ccc2ccccc2c1 (stereo not shown) [Example 22] | 0% |  |
| OC(CCNc1ccc(Cl)c(Cl)c1)c1ccc2ccccc2c1 (stereo not shown) [Example 23] | 0% |  |
| OC(CCNc1ccc(C(F)(F)F)cc1)c1ccc2ccccc2c1 (stereo not shown) [Example 24] | 0% |  |
| COc1ccc(NCCC(O)c2ccc3ccccc3c2)cc1 (stereo not shown) [Example 25] | 0% |  |
| CN(CCC(O)c1ccc2ccccc2c1)c1ccc(Oc2ccccc2)cc1 (stereo not shown) [Example 26] | 6% |  |
| CC(C)N(CCC(O)c1ccc2ccccc2c1)c1ccc(Cl)cc1 (stereo not shown) [Example 27] | 0% |  |
| OC(CCNc1cc(F)ccc1F)c1ccc2ccccc2c1 (stereo not shown) [Example 28] | 0% |  |
| COc1ccc(CN(CCC(O)c2ccc3ccccc3c2)C(C)C)cc1 (stereo not shown) [Example 29] | 55% | γ-Secretase Assay C-100 Flag [1]: Inh |
| CC(C)N(CCC(O)c1ccc2ccccc2c1)Cc1ccc(C#N)cc1 (stereo not shown) [Example 34] | 19% |  |

| Structure (SMILES) | inhibition at 100 µM [2] | further results |
| --- | --- | --- |
| COc1cc(CN(CCC(O)c2ccc3ccccc3c2)C(C)C)cc(OC)c1 (stereo not shown) [Example 35] | 17% |  |
| CC(C)N(CCC(O)c1ccc2ccccc2c1)Cc1cccc(C#N)c1 (stereo not shown) [Example 36] | 7% |  |
| OC(CCN(Cc1ccccc1)C1CC1)c1ccc2ccccc2c1 (stereo not shown) [Example 37] | 36% |  |
| CC(C)N(CCC(O)c1ccc(F)cc1)Cc1ccccc1 (stereo not shown) [Example 38] | 17% |  |
| OC(CCN1CCN(c2ccc(F)cc2)CC1)c1ccc(C(F)(F)F)cc1 (stereo not shown) [Example 39] | 14% |  |
| CC(C)(C)c1ccc(C(O)CCN2CCN(c3ccc(F)cc3)CC2)cc1 (stereo not shown) [Example 40] | 46% |  |
| CC(C)N(CCC(O)c1ccc(C(F)(F)F)cc1)Cc1ccccc1 (stereo not shown) [Example 41] | 27% | γ-Secretase Assay N-100 Flag [3]: Enh |
| CC(C)N(CCC(O)c1ccc2ccccc2c1)Cc1ccc(F)c(Cl)c1 (stereo not shown) [Example 43] | 0% |  |
| CC(C)N(CCCC(O)c1cccc2ccccc12)Cc1ccccc1 (stereo not shown) [Example 45] | 0% |  |
| CC(C)N(CCCC(O)c1ccc2ccccc2c1)Cc1ccccc1 (stereo not shown) [Example 46] | 2% |  |
| OC(CCN1CCN(Cc2ccccc2)CC1)c1ccc2ccccc2c1 (stereo not shown) [Example 47] | 0% |  |
| Cc1cc(C)c(C(O)CCN(Cc2ccccc2)C(C)C)c(C)c1 (stereo not shown) [Example 49] | 0% |  |
| CC(C)N(CCC(O)c1ccc(OC2CCCCO2)cc1)Cc1ccccc1 (stereo not shown) [Example 50] | 0% |  |
| COc1ccc2cc(C(O)CCN(Cc3ccccc3)C(C)C)ccc2c1 (stereo not shown) [Example 51] | 10% |  |
| CC(C)N(CCC(O)c1ccc(Oc2ccccc2)cc1)Cc1ccccc1 (stereo not shown) [Example 52] | 24% |  |
| CC(C)N(CCC(O)c1cccc(OCc2ccccc2)c1)Cc1ccccc1 (stereo not shown) [Example 53] | 31% |  |
| CC(C)N(CCC(O)c1ccc(OC(F)(F)F)cc1)Cc1ccccc1 (stereo not shown) [Example 58] | 1% |  |
| COc1ccc(C(O)CCN(Cc2ccccc2)C(C)C)cc1OC (stereo not shown) [Example 59] | 0% |  |
| CC(CN(Cc1ccccc1)C(C)C)C(O)c1ccc2ccccc2c1 (stereo not shown) [Example 87] |  | γ-Secretase Assay ELISA % Inhibition [100 μM] Aβ1-40 [2]: 22% |
| CC(CN(Cc1ccccc1)C(C)C)C(O)c1ccc2ccccc2c1 (stereo not shown) [Example 88] |  | γ-Secretase Assay C-100 Flag [1]: Inh; γ-Secretase Assay ELISA % Inhibition [100 μM] Aβ1-40 [2]: 66% |
| C[C@@H](CN1CCN(c2ccc(F)cc2)CC1)[C@H](O)c1ccc2ccccc2c1 [Example 89] |  | inhibition at 50 µM [2]: 9% |
| C[C@H](CN1CCN(c2ccc(F)cc2)CC1)[C@H](O)c1ccc2ccccc2c1 [Example 90] |  | inhibition at 50 µM [2]: 0% |
